The subject of experiment [1] is naïve human CD8 T cells. Put plainly: CellTiter-Glo CD8 T cell proliferation assay. In kind it is cell-based. To be noted: Homo sapiens, read-out: CD8 GLO Normalized EC50. Here is the method:
Assay 4: CellTiter-Glo CD8 T Cell Proliferation Assay
Frozen naïve human CD8 T cells were thawed in RPMI+10% FBS, incubated for 2 h in 37° C., and counted. The 384-well tissue culture plate was coated overnight at 4° C. with 20 μl anti-human CD3 at 0.1 μg/mL in plain RPMI, which was removed off the plate before 20 k/40 μL CD8 T cells with 0.5 μg/ml soluble anti-human CD28 were added to each well. The compounds were echoed to the cell plate immediately after the cells were plated. After 72 h incubation at 37° C. incubator, 10 μL CellTiter-glo reagent (Promega catalog number G7570) was added to each well. The plate was vigorously shaken for 5 mins, incubated at room temperature for another 15 mins and read on Envision for CD8 T cell proliferation. In analysis, 0.1 μg/mL anti-CD3 and 0.5 μg/mL anti-CD28 stimulated CD8 T cell signal was background.

The test system of experiment [2] is OT-1 CD8+ T cells with SIINFEKL-loaded MC38 tumor cells. The experiment can be described thus: Murine cytotoxic T lymphocyte assay (IFN-γ). To be noted: murine cytotoxic T lymphocyte, IFN-γ, read-out: msCTL INFg IC50. In kind it is cell-based, mouse. The text has this:
Assay 6: Murine Cytotoxic T Lymphocyte Assay
An antigen-specific cytolytic T-cell (CTL) assay was developed to evaluate functionally the ability of DGKα and DGKζ inhibitors to enhance effector T cell mediated tumor cell killing activity. CD8+ T-cells isolated from the OT-1 transgenic mouse recognize antigen presenting cells, MC38, that present the ovalbumin derived peptide […]. Recognition of the cognate antigen initiates the cytolytic activity of the OT-1 antigen-specific CD8+ T cells.
Functional CTL cells were generated as follows: OT-1 splenocytes from 8-12 week old mice were isolated and expanded in the presence of the […] peptide at 1 μg/mL and mIL2 at 10 U/mL. After three days, fresh media with […] was added. On day 5 of the expansion, the CD8+ T cells were isolated and ready for use. Activated CTL cells may be stored frozen for 6 months. Separately, one million MC38 tumor cells were pulsed with 1 μg/mL of […]-OVA peptide for 3 hours at 37° C. The cells were washed (3×) with fresh media to remove excess peptide. Finally, CTL cells that were pretreated with DGK inhibitors for 1 hour in a 96-well U bottom plate were combined with the antigen loaded MC38 tumor cells at a 1:10 ratio. The cells were then spun at 700 rpm for 5 min and placed in an incubator overnight at 37° C. After 24 hours, the supernatant was collected for analysis of IFN-γ cytokine levels by AlphaLisa purchased from Perkin Elmer.

Experiment [3] deals with Human venous whole blood (IFN-γ). The experiment can be described thus: Human whole blood IFN-γ assay. It counts as cell-based. To be noted: Homo sapiens, 24 h, human whole blood, anti-CD3 plus anti-CD28, 24 hours; read-out: INFg Whole Blood Normalized Agonist EC50. The method, then: Assay 10: Human Whole Blood IFN-γ Assay
Human venous whole blood (22.5 μL per well), obtained from healthy donors, was pre-treated with compounds for one hour at 37° C. in a humidified 95% air/5% CO2 incubator. The blood was stimulated with 2.5 μL anti-human CD3 and anti-CD28 mAb at a final concentration of 1 μg/mL each for 24 hours at 37° C. IFN-γ in the supernatants was measured using AlphLISA kit (Cat #AL217).

The target of experiment [4] is DGKα (Homo sapiens (Human), UniProt P23743). The experiment can be described thus: biochemical. To be noted: liposome (LIPGLO) assay; read-out: DGKα LIPGLO IC50. It counts as biochemical.
Chain of DGKα (P23743 whole entry, looked up): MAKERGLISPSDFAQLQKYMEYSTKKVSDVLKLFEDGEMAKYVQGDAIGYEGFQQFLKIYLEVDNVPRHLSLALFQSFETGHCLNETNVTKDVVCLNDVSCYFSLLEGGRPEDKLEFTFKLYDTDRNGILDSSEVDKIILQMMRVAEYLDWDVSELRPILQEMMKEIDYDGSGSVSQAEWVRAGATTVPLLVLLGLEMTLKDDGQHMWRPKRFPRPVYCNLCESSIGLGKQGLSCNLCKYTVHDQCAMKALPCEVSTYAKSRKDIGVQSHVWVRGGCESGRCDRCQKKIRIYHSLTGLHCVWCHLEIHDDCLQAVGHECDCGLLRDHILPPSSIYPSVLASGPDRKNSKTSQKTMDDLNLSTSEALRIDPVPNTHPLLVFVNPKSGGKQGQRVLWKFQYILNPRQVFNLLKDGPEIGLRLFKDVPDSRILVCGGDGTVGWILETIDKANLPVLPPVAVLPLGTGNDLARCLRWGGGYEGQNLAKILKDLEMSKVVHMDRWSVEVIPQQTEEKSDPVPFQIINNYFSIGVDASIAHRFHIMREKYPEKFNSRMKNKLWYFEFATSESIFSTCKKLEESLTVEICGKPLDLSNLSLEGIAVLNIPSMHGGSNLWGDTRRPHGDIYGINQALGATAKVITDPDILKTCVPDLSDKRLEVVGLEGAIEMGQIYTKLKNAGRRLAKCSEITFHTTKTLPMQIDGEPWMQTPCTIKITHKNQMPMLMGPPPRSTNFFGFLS
Experiment [5] addresses human DGKζ (Homo sapiens (Human), UniProt Q13574). Put plainly: biochemical. In kind it is biochemical. To be noted: liposome (LIPGLO) assay; read-out: DGKζ LIPGLO IC50.

pEC50, pIC50: −log10 of the molar value. Read-outs that look alike come from different tables or passages of the source.

The term pEC50 denotes the EC50 on a negative log10 scale, so that one unit is a factor of ten. What is called pIC50 is the IC50 on a negative log10 scale, so that one unit is a factor of ten.

Chain of human DGKζ (Q13574 whole entry, looked up): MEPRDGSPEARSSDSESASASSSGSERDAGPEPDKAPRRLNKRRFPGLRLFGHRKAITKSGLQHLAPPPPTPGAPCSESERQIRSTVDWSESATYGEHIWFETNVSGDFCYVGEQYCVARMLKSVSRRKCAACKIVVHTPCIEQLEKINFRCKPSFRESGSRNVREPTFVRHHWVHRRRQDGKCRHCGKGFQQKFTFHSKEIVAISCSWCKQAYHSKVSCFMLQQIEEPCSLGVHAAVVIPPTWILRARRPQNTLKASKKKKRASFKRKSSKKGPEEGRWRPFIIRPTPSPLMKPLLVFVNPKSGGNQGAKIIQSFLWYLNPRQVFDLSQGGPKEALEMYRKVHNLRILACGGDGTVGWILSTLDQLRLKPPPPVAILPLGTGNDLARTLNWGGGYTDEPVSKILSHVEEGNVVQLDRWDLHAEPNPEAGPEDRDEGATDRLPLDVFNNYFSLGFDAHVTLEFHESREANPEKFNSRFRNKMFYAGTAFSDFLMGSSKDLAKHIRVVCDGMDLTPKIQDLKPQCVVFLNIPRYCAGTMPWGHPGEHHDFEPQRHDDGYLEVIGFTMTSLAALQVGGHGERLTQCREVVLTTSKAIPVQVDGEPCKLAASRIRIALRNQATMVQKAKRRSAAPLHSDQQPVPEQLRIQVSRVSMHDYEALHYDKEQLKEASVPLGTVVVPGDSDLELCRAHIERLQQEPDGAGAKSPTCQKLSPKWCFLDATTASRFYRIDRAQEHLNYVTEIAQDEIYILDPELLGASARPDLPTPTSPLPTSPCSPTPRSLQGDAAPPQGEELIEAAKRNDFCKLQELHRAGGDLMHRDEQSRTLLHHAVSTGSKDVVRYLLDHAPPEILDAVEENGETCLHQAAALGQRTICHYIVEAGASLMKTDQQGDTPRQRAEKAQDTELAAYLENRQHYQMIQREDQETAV

Regarding `CC(C)c1ccc(OC2CCN(c3c([N+](=O)[O-])c(=O)n(C)c4ccc(F)cc34)CC2)cc1` [Example 2, 6-fluoro-4-(4-(4-isopropylphenoxy)piperidin-1-yl)-1-methyl-3-nitroquinolin-2(1H)-one], the negative logarithm of the EC50 (pEC50) in experiment [1] is 6.47.
Consider `Cc1cccc(OC2CCN(c3c([N+](=O)[O-])c(=O)n(C)c4ccc(F)cc34)CC2)c1` [Example 4, 6-fluoro-1-methyl-3-nitro-4-(4-(m-tolyloxy)piperidin-1-yl)quinolin-2(1H)-one], for which the pEC50 in experiment [1] was 6.36.
Take `Cn1c(=O)c([N+](=O)[O-])c(N2CCC(Oc3cccc4[nH]ncc34)CC2)c2cc(F)ccc21` [Example 5, 4-(4-((1H-indazol-4-yl)oxy)piperidin-1-yl)-6-fluoro-1-methyl-3-nitroquinolin-2(1H)-one]: the pEC50 in experiment [1] was 5.00.
`Cn1c(=O)c([N+](=O)[O-])c(N2CCC(Oc3cccc(C#N)c3)CC2)c2cc(F)ccc21` [Example 6, 3-((1-(6-fluoro-1-methyl-3-nitro-2-oxo-1,2-dihydroquinolin-4-yl)piperidin-4-yl)oxy)benzonitrile]: the negative logarithm of the EC50 (pEC50) in experiment [1] is 5.00.
Take `Cn1c(=O)c([N+](=O)[O-])c(N2CCC(Oc3cccc(Cl)c3)CC2)c2cc(F)ccc21` [Example 7, 4-(4-(3-chlorophenoxy)piperidin-1-yl)-6-fluoro-1-methyl-3-nitroquinolin-2(1H)-one]: in experiment [1], the pEC50 was 5.64.
On the same count and under the same terms, for `COc1ccc(C(F)(F)F)cc1OC1CCN(c2c([N+](=O)[O-])c(=O)n(C)c3ccc(F)cc23)CC1` [Example 8, 6-fluoro-4-(4-(2-methoxy-5-(trifluoromethyl)phenoxy)piperidin-1-yl)-1-methyl-3-nitroquinolin-2(1H)-one] the value was 6.49; for `Cn1c(=O)c([N+](=O)[O-])c(N2CCC(Oc3cccc(F)c3)CC2)c2cc(F)ccc21` [Example 9, 6-fluoro-4-(4-(3-fluorophenoxy)piperidin-1-yl)-1-methyl-3-nitroquinolin-2(1H)-one], 6.10.
For the molecule `Cn1c(=O)c(C#N)c(N2CCC(Oc3ccc(Cl)cc3)CC2)c2nc(Cl)ccc21` [Example 16, 6-chloro-4-(4-(4-chlorophenoxy)piperidin-1-yl)-1-methyl-2-oxo-1,2-dihydro-1,5-naphthyridine-3-carbonitrile], the negative logarithm of the IC50 (pIC50) in experiment [2] (Mus musculus, MC-38) was 5.96; in experiment [4] it was 5.77. The figures for the pEC50 in experiment [3] and in experiment [1] were 5.00 and 7.03, respectively.
Consider `Cn1c(=O)c(C#N)c(N2CCC(Oc3ccc(OC(F)(F)F)cc3)CC2)c2nc(Cl)ccc21` [Example 19, 6-chloro-1-methyl-2-oxo-4-(4-(4-(trifluoromethoxy)phenoxy)piperidin-1-yl)-1,2-dihydro-1,5-naphthyridine-3-carbonitrile], for which the negative logarithm of the IC50 (pIC50) in experiment [2] (Mus musculus, MC-38) is 6.68; in experiment [4] it was 6.49. Also, the pEC50 in experiment [3] was 5.00; in experiment [1] it was 6.55.
Turning to `Cn1c(=O)c(C#N)c(N2CCC(Oc3ccc(F)cc3)CC2)c2nc(Cl)ccc21` [Example 20, 6-chloro-4-(4-(4-fluorophenoxy)piperidin-1-yl)-1-methyl-2-oxo-1,2-dihydro-1,5-naphthyridine-3-carbonitrile], in experiment [1], the negative logarithm of the EC50 (pEC50) was 6.06. Further, the pIC50 was 6.37 in experiment [4] and 4.80 in experiment [5].
For `Cc1cccc(OC2CCN(c3c(C#N)c(=O)n(C)c4ccc(Cl)nc34)CC2)c1` [Example 22, 6-chloro-1-methyl-2-oxo-4-(4-(m-tolyloxy)piperidin-1-yl)-1,2-dihydro-1,5-naphthyridine-3-carbonitrile], the pEC50 in experiment [1] was 6.21. Besides, the pIC50 in experiment [4] is 6.82; in experiment [5], 5.24.
Regarding `Cn1c(=O)c(C#N)c(N2CCC(Oc3cc(F)ccc3Cl)CC2)c2nc(Cl)ccc21` [Example 23, 6-chloro-4-(4-(2-chloro-5-fluorophenoxy)piperidin-1-yl)-1-methyl-2-oxo-1,2-dihydro-1,5-naphthyridine-3-carbonitrile], the pIC50 in experiment [2] (Mus musculus, MC-38) is 5.00; in experiment [4] it was 4.18; in experiment [5] it was 4.24.
As to `Cn1c(=O)c(C#N)c(N2CCC(Oc3cccc(C(F)(F)F)c3)CC2)c2nc(Cl)ccc21` [Example 24, 6-chloro-1-methyl-2-oxo-4-(4-(3-(trifluoromethyl)phenoxy)piperidin-1-yl)-1,2-dihydro-1,5-naphthyridine-3-carbonitrile], the negative logarithm of the IC50 (pIC50) was 5.82 in experiment [2] (Mus musculus, MC-38); 5.70 in experiment [4]; 4.57 in experiment [5]. Also, the pEC50 in experiment [1] was 6.12.
Turning to `CN(C)C(=O)c1ccc(OC2CCN(c3c(C#N)c(=O)n(C)c4ccc(Cl)nc34)CC2)cc1` [Example 25, 4-((1-(6-chloro-3-cyano-1-methyl-2-oxo-1,2-dihydro-1,5-naphthyridin-4-yl)piperidin-4-yl)oxy)-N,N-dimethylbenzamide], the pIC50 in experiment [2] (Mus musculus, MC-38) was 5.00; in experiment [4], 6.14; in experiment [5], 3.62. For the same molecule, in experiment [1], the pEC50 is 5.92.
Take `Cc1cc(Br)ccc1OC1CCN(c2c(C#N)c(=O)n(C)c3ccc(Cl)nc23)CC1` [Example 26, 4-(4-(4-bromo-2-methylphenoxy)piperidin-1-yl)-6-chloro-1-methyl-2-oxo-1,2-dihydro-1,5-naphthyridine-3-carbonitrile]: in experiment [2] (Mus musculus, MC-38), the pIC50 is 5.00. The negative logarithm of the EC50 (pEC50) in experiment [1] was 5.57.
For `Cn1c(=O)c(C#N)c(N2CCC(Oc3cccc(Cl)c3)CC2)c2nc(Cl)ccc21` [Example 27, 6-chloro-4-(4-(3-chlorophenoxy)piperidin-1-yl)-1-methyl-2-oxo-1,2-dihydro-1,5-naphthyridine-3-carbonitrile] the same measures were 5.13 and 7.14.
In the case of `Cc1cc(F)cc(OC2CCN(c3c(C#N)c(=O)n(C)c4ccc(Cl)nc34)CC2)c1` [Example 28], the negative logarithm of the IC50 (pIC50) in experiment [2] was 5.00; in experiment [4], 5.80; in experiment [5], 5.27.
Consider `Cn1c(=O)c(C#N)c(N2CCC(Oc3ccc(C#N)cc3)CC2)c2nc(Cl)ccc21` [Example 32, 6-chloro-4-(4-(4-cyanophenoxy)piperidin-1-yl)-1-methyl-2-oxo-1,2-dihydro-1,5-naphthyridine-3-carbonitrile], for which the pIC50 in experiment [2] (Mus musculus, MC-38) was 5.00.
Take `COc1ccccc1OC1CCN(c2c(C#N)c(=O)n(C)c3ccc(Cl)nc23)CC1` [Example 35, 6-chloro-4-(4-(2-methoxyphenoxy)piperidin-1-yl)-1-methyl-2-oxo-1,2-dihydro-1,5-naphthyridine-3-carbonitrile]: the negative-log EC50 (pEC50) in experiment [1] is 6.68. In addition, the negative-log IC50 (pIC50) in experiment [4] is 6.54; in experiment [5], 4.92.
For `CC(C)c1ccc(OC2CCN(c3c(C#N)c(=O)n(C)c4ccc(Cl)nc34)CC2)cc1` [Example 37, 6-chloro-4-(4-(4-isopropylphenoxy)piperidin-1-yl)-1-methyl-2-oxo-1,2-dihydro-1,5-naphthyridine-3-carbonitrile], in that order: 5.96, 6.31 and 3.62.
Take `Cn1c(=O)c(C#N)c(N2CCC(Oc3ccccc3F)CC2)c2nc(Cl)ccc21` [Example 44, 6-chloro-4-(4-(2-fluorophenoxy)piperidin-1-yl)-1-methyl-2-oxo-1,2-dihydro-1,5-naphthyridine-3-carbonitrile]: in experiment [1], the negative logarithm of the EC50 (pEC50) was 5.82. Also, the pIC50 in experiment [4] is 5.77; in experiment [5] it was 4.23.
For the molecule `Cn1c(=O)c(C#N)c(N2CCC(Oc3cccc(F)c3)CC2)c2nc(Cl)ccc21` [Example 45, 6-chloro-4-(4-(3-fluorophenoxy)piperidin-1-yl)-1-methyl-2-oxo-1,2-dihydro-1,5-naphthyridine-3-carbonitrile], the pIC50 in experiment [2] (Mus musculus, MC-38) was 5.00. For the same molecule, the pEC50 in experiment [1] was 7.01.

These data come from patent publication US11964973B2 (priority 2019, dated 2024).
